According to publication PMC7352759, “S(+)-(2E)-N-(2-Hydroxypropyl)-3-Phenylprop-2-Enamide (KM-568): A Novel Cinnamamide Derivative with Anticonvulsant Activity in Animal Models of Seizures and Epilepsy” (International Journal of Molecular Sciences, 2020):

What was measured:
CF-1 mice = assay: Chemoconvulsant test, bicuculine; format: in vivo; details: 0.25 h
Protocol: Initially, compound KM-568 was administered i.p. at 130.0 mg/kg in two groups of CF-1 mice (n = 8). After 0.25 h, the subcutaneous injections of either bicuculine (2.7 mg/kg) or picrotoxin (2.5 mg/kg) were performed. The, animals were placed in isolation cages and observed for 30 min (in a bicuculine assay) or 45 min (in a picrotoxin assay) for the presence or absence of an episode of a clonic seizure.

hippocampal kindled rats = assay: Hippocampal kindled rat model; format: in vivo; details: for Results (protected/tested animals) / Seizure Duration ± SEM / Seizure Score ± SEM (Racine scale): i.p.
Protocol: The electrodes were implanted in brains one week prior to experiments. Then, rats were stimulated with suprathreshold stimuli of 200 µA for 10 sec at 50 Hz every 30 min for 6 h on alternate days until fully kindled. One week after reaching the fully kindled state, the effect of 23 and 27 mg/kg, i.p. of KM-568 in the groups of 5–6 rats were evaluated. The tests were performed at different time points (0–2.25 h) after compound administration. The results were scored as behavioral seizure score (according to Racine scale) and after discharge duration. The protection was noted if the seizure score was 3 or less.

[1] = Ames microplate format (MPF) assay, TA100; details: Salmonella typhimurium
Source text: (§1) The Ames microplate format (MPF) mutagenicity assay (Xenometrix, Allschwil, Switzerland) was used to test KM-568 mutagenicity. Growth, exposure, and indicator media, positive control chemicals, and four Salmonella typhimurium strains TA98, TA100, TA1535 and TA1537 were included in the kit. TA100 and TA1535 strains detect base substitution mutations, whereas TA98 and TA1537 indicate frameshift mutations. The strains of bacteria included in a kit are in compliance with the Organization for Economic Cooperation and Development (OECD) 471 Guideline for Testing of Chemicals.
(§2) The assay is a liquid microplate modification of the traditional Salmonella test. During the procedure, bacteria are exposed to different concentrations of a test compound for 90 min in a medium containing sufficient histidine to support cell divisions. Then, the cultures are diluted in a pH indicator medium lacking histidine and aliquoted into 48 wells of a 384-well plate. Within 2 days, bacteria that have undergone reversion to amino acid prototrophy will form colonies. Products of bacteria metabolism reduce pH of the medium, changing the color of wells from purple to yellow.
The test procedure provided by Xenometrix and described in detail elsewhere was followed. Bacterial strains were grown overnight (14–16 h) in exposure medium in a shaker incubator and then exposed to KM-568 in 24-well plates for 90 min at 37 °C with agitation. Final KM-568 concentrations in the assay were 0.1, 0.2, and 0.5 mM. After preincubation, the cultures were diluted in the indicator medium and the contents of each 24-well culture were transferred to 48 wells on a 384-well plate and incubated further for 48 h at 37 °C without agitation. After the exposure, the number of wells containing bacteria was scored for yellow wells. […]
(§3) The fold increase of revertants relative to the solvent control was determined by dividing the mean number of positive wells at each dose by the solvent control at baseline. The solvent control at baseline was calculated as the mean number of positive wells in the solvent control plus one standard deviation (SD). […]

[2] = Ames microplate format (MPF) assay, TA1535; details: Salmonella typhimurium, Salmonella typhimurium TA1535
Source text: as §1, §2
The test procedure provided by Xenometrix and described in detail elsewhere was followed. Bacterial strains were grown overnight (14–16 h) in exposure medium in a shaker incubator and then exposed to KM-568 in 24-well plates for 90 min at 37 °C with agitation. Final KM-568 concentrations in the assay were 0.1, 0.2, and 0.5 mM. After preincubation, the cultures were diluted in the indicator medium and the contents of each 24-well culture were transferred to 48 wells on a 384-well plate and incubated further for 48 h at 37 °C without agitation. After the exposure, the number of wells containing bacteria was scored for yellow wells. […] Pure DMSO was used as a negative control. All doses were performed in triplicate.
The fold increase of revertants relative to the solvent control was determined by dividing the mean number of positive wells at each dose by the solvent control at baseline. The solvent control at baseline was calculated as the mean number of positive wells in the solvent control plus one standard deviation (SD). When an increase of more than twofold relative to the baseline at more than one dose with a dose–response was observed, the sample was classified as positive, whereas when no response > 2 times the baseline and no dose–response was stated, the sample was classified as negative.

[3] = system: Salmonella typhimurium strains TA98, TA100, TA1535 and TA1537; assay: Ames microplate format (MPF) assay, overall verdict; details: 0.1, 0.2, 0.5 mM; four strains
Source text: as §1
The assay is a liquid microplate modification of the traditional Salmonella test. During the procedure, bacteria are exposed to different concentrations of a test compound for 90 min in a medium containing sufficient histidine to support cell divisions. […]
The test procedure provided by Xenometrix and described in detail elsewhere was followed. […] After the exposure, the number of wells containing bacteria was scored for yellow wells. […]
as §3

HepG2 cells = assay: MTT cytotoxicity assay, HepG2; format: cell-based, human
Protocol: Human liver cancer HepG2 cell line (ATCC HB8065) and rat cardiomyoblast cell line H9c2 (ATCC-CRL1446) were purchased in ATCC (American Type Culture Collection, Manassas, VA, USA). The cells were cultured in standard conditions (37 °C, 5% CO2) in EMEM medium (ATCC, Manassas, VA, USA), supplemented with 10% FBS (Gibco, Waltham, MA, USA) and antibiotics (1% streptomycin/penicillin mixture, Sigma–Aldrich, Darmstadt, Germany) or DMEM high glucose (ATCC, Manassas, VA, USA) supplemented with 10% FBS (Gibco, Waltham, MA, USA) and antibiotics (1% streptomycin/penicillin mixture, Sigma–Aldrich, Darmstadt, Germany), respectively.
The MTT colorimetric assay was used to determine the cytotoxic effects of the KM-568 and DOX (Sigma–Aldrich, Darmstadt, Germany). Cells were seeded at a density of 1 × 10^4 in 96-well plates. Following overnight culture, the cells were then treated with KM-568 and DOX in concentration range 0.1–200 µM (hepatocytotoxicity) or 0.1–100 µM (cardiocytotoxicity). Following cell exposure to each drug for 24 h in 96 well plates, 10 µL MTT reagent (Sigma–Aldrich, Darmstadt, Germany) was added to each well; after 4 h of incubation (37 °C, 5% CO2), the medium was aspirated and formazan produced in cells appeared as dark crystals in the bottom of the wells. […] Then, absorbance was measured at 570 nm on a multi-well plate reader (Spectra Max iD3, Molecular Devices, San Jose, CA, USA). […]

Structure (SMILES): C[C@H](O)CNC(=O)/C=C/c1ccccc1 [KM-568, S(+)-(2E)-N-(2-hydroxypropyl)-3-phenylprop-2-enamide]
- ED50 (CF-1 mice; Mus musculus, ip): > 130 mg/kg
- Bicuculine Results (protected/tested animals) (CF-1 mice; i.p., 130 mg/kg): 0/8
- ED50 (hippocampal kindled rats; Rattus norvegicus, ip): 24.2 mg/kg
- Results (protected/tested animals) (hippocampal kindled rats; 23 mg/kg, 15 min): 2/6
- Seizure Duration ± SEM (hippocampal kindled rats; 23 mg/kg, 15 min): 55.67 ± 6.44 s
- Seizure Score ± SEM (Racine scale) (hippocampal kindled rats; 23 mg/kg, 15 min): 3.67 ± 0.84
- Seizure Duration ± SEM (hippocampal kindled rats; 23 mg/kg, 45 min): 65.83 ± 14.61 s
- Seizure Score ± SEM (Racine scale) (hippocampal kindled rats; 23 mg/kg, 45 min): 5.0 ± 0.0
- Seizure Duration ± SEM (hippocampal kindled rats; 23 mg/kg, 75 min): 56.67 ± 6.96 s
- Seizure Score ± SEM (Racine scale) (hippocampal kindled rats; 23 mg/kg, 75 min): 5.0 ± 0.0
- Seizure Duration ± SEM (hippocampal kindled rats; 23 mg/kg, 100 min): 57.83 ± 9.27 s
- Seizure Score ± SEM (Racine scale) (hippocampal kindled rats; 23 mg/kg, 100 min): 5.0 ± 0.0
- Seizure Duration ± SEM (hippocampal kindled rats; 23 mg/kg, 135 min): 55.17 ± 9.48 s
- Seizure Score ± SEM (Racine scale) (hippocampal kindled rats; 23 mg/kg, 135 min): 5.0 ± 0.0
- Results (protected/tested animals) (hippocampal kindled rats; 27 mg/kg, 15 min): 4/5
- Seizure Duration ± SEM (hippocampal kindled rats; 27 mg/kg, 15 min): 50.4 ± 3.08 s
- Seizure Score ± SEM (Racine scale) (hippocampal kindled rats; 27 mg/kg, 15 min): 1.8 ± 0.97
- Seizure Score ± SEM (Racine scale) (hippocampal kindled rats; 27 mg/kg, 45 min): 4.2 ± 0.80
- Seizure Duration ± SEM (hippocampal kindled rats; 27 mg/kg, 75 min): 70.6 ± 27.57 s
- Seizure Score ± SEM (Racine scale) (hippocampal kindled rats; 27 mg/kg, 75 min): 3.4 ± 0.98
- Seizure Duration ± SEM (hippocampal kindled rats; 27 mg/kg, 100 min): 62.5 ± 10.71 s
- Seizure Score ± SEM (Racine scale) (hippocampal kindled rats; 27 mg/kg, 100 min): 5.0 ± 0.0
- Seizure Duration ± SEM (hippocampal kindled rats; 27 mg/kg, 135 min): 95.0 ± 17.78 s
- Seizure Score ± SEM (Racine scale) (hippocampal kindled rats; 27 mg/kg, 135 min): 5.0 ± 0.0
- fold induction at 90 min, 0.1 mM [1]: 0.8
- fold induction at 90 min, 0.2 mM [1]: 0.7
- fold induction at 90 min, 0.5 mM [1]: 1
- fold induction at 90 min, 0.1 mM [2]: 0.7
- fold induction at 90 min, 0.2 mM [2]: 1.3
- fold induction at 90 min, 0.5 mM [2]: 1.1
- mutagenic activity in the Ames MPF assay [3]: did not exhibit mutagenic activity
- percent of living cells (HepG2 cells; HepG2, 24 h incubation with 100 µM): ~100%
- cytotoxic effect, MTT assay (HepG2 cells; HepG2, up to 100 µM, 24 h): no cytotoxic effect
